System: 624824-186-R-J3-PDC multicell spheroids, viability
Test: Anticancer human tumor 624824-186-R-J3-PDC patient-derived colon adenocarcinoma cell line growth inhibition [PI3K]
Conditions: for IC50: curve of first compound; for viability, T/C: stronger effect = lower value
Procedure, shortened: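 Stroma-containing spheroids: tumor line, pooled-donor HUVEC, hMSC. Treatments: targeted agents with PI3K inhibitors. Dosing: clinically relevant, half-log spacing, 10 microM ceiling without known Cmax. Read-out: cell viability.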

[1] = second compound 0.00316 µM, first compound 0.0316 µM
[2] = second compound 0.00316 µM, first compound 0.1 µM
[3] = second compound 0.00316 µM, first compound 0.316 µM
[4] = second compound 0.00316 µM, first compound 1 µM
[5] = second compound 0.00316 µM, first compound 3.16 µM
[6] = second compound 0.00316 µM, first compound 10 µM
[7] = second compound 0.01 µM, first compound 0.0316 µM
[8] = second compound 0.01 µM, first compound 0.1 µM
[9] = second compound 0.01 µM, first compound 0.316 µM
[10] = second compound 0.01 µM, first compound 1 µM
[11] = second compound 0.01 µM, first compound 3.16 µM
[12] = second compound 0.01 µM, first compound 10 µM
[13] = second compound 0.0316 µM, first compound 0.0316 µM
[14] = second compound 0.0316 µM, first compound 0.1 µM
[15] = second compound 0.0316 µM, first compound 0.316 µM
[16] = second compound 0.0316 µM, first compound 1 µM
[17] = second compound 0.0316 µM, first compound 3.16 µM
[18] = second compound 0.0316 µM, first compound 10 µM
[19] = second compound 0.1 µM, first compound 0.0316 µM
[20] = second compound 0.1 µM, first compound 0.1 µM
[21] = second compound 0.1 µM, first compound 0.316 µM
[22] = second compound 0.1 µM, first compound 1 µM
[23] = second compound 0.1 µM, first compound 3.16 µM
[24] = second compound 0.1 µM, first compound 10 µM
[25] = second compound 0.316 µM, first compound 0.0316 µM
[26] = second compound 0.316 µM, first compound 0.1 µM
[27] = second compound 0.316 µM, first compound 0.316 µM
[28] = second compound 0.316 µM, first compound 1 µM
[29] = second compound 0.316 µM, first compound 3.16 µM
[30] = second compound 0.316 µM, first compound 10 µM
[31] = second compound 1 µM, first compound 0.0316 µM
[32] = second compound 1 µM, first compound 0.1 µM
[33] = second compound 1 µM, first compound 0.316 µM
[34] = second compound 1 µM, first compound 1 µM
[35] = second compound 1 µM, first compound 3.16 µM
[36] = second compound 1 µM, first compound 10 µM
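Note: spheroids exposed to agents for seven days before luminescence read.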
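Throughout, for viability, T/C: luminescent signal used as a stand-in for spheroid viability; percent viability relative to DMSO vehicle control wells taken as 100%.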

## CC(C)NCC(C(=O)N1CCN(c2ncnc3c2C(C)CC3O)CC1)c1ccc(Cl)cc1 (stereo not drawn) + CC(Nc1ccc2c(c1)OCCn1cc(N3C(=O)OCC3C(F)F)nc1-2)C(N)=O
Second compound 0.00316 µM
  IC50: 6.8 µM
Second compound 0.01 µM
  IC50: 7.52 µM
Second compound 0.0316 µM
  IC50: 5.35 µM
Second compound 0.1 µM
  IC50: 7.68 µM
Second compound 0.316 µM
  IC50: 4.24 µM
Second compound 1 µM
  IC50: 3.44 µM
[1]
  viability, T/C: 107%
[2]
  viability, T/C: 96.8%
[3]
  viability, T/C: 97.7%
[4]
  viability, T/C: 73.1%
[5]
  viability, T/C: 59.9%
[6]
  viability, T/C: 45.4%
[7]
  viability, T/C: 98.3%
[8]
  viability, T/C: 96.8%
[9]
  viability, T/C: 99.4%
[10]
  viability, T/C: 72%
[11]
  viability, T/C: 63.8%
[12]
  viability, T/C: 45.3%
[13]
  viability, T/C: 96.2%
[14]
  viability, T/C: 93.4%
[15]
  viability, T/C: 91.6%
[16]
  viability, T/C: 77.4%
[17]
  viability, T/C: 57.2%
[18]
  viability, T/C: 41.7%
[19]
  viability, T/C: 108%
[20]
  viability, T/C: 94.1%
[21]
  viability, T/C: 88.1%
[22]
  viability, T/C: 83.7%
[23]
  viability, T/C: 59.5%
[24]
  viability, T/C: 46.4%
[25]
  viability, T/C: 96.2%
[26]
  viability, T/C: 91.8%
[27]
  viability, T/C: 94.4%
[28]
  viability, T/C: 72.5%
[29]
  viability, T/C: 54.2%
[30]
  viability, T/C: 41.9%
[31]
  viability, T/C: 92%
[32]
  viability, T/C: 88.8%
[33]
  viability, T/C: 86.1%
[34]
  viability, T/C: 65%
[35]
  viability, T/C: 53.6%
[36]
  viability, T/C: 35.1%

## CC1(C)CCC(CN2CCN(c3ccc(C(=O)NS(=O)(=O)c4ccc(NCC5CCOCC5)c([N+](=O)[O-])c4)c(Oc4cnc5[nH]ccc5c4)c3)CC2)=C(c2ccc(Cl)cc2)C1 + COc1c(OCCCN2CCOCC2)ccc2c3n(c(=NC(=O)c4cnc(N)nc4)nc12)CCN3
Second compound 0.00316 µM
  IC50: > 10 µM
Second compound 0.01 µM
  IC50: > 10 µM
Second compound 0.0316 µM
  IC50: > 10 µM
Second compound 0.1 µM
  IC50: > 10 µM
Second compound 0.316 µM
  IC50: < 0.0316 µM
Second compound 1 µM
  IC50: < 0.0316 µM
[1]
  viability, T/C: 114%
[2]
  viability, T/C: 99.2%
[3]
  viability, T/C: 111%
[4]
  viability, T/C: 102%
[5]
  viability, T/C: 121%
[6]
  viability, T/C: 105%
[7]
  viability, T/C: 93.7%
[8]
  viability, T/C: 99.5%
[9]
  viability, T/C: 105%
[10]
  viability, T/C: 105%
[11]
  viability, T/C: 105%
[12]
  viability, T/C: 107%
[13]
  viability, T/C: 95%
[14]
  viability, T/C: 96.8%
[15]
  viability, T/C: 89.6%
[16]
  viability, T/C: 87.6%
[17]
  viability, T/C: 99.1%
[18]
  viability, T/C: 85.2%
[19]
  viability, T/C: 73.1%
[20]
  viability, T/C: 83.8%
[21]
  viability, T/C: 74.4%
[22]
  viability, T/C: 75.5%
[23]
  viability, T/C: 65%
[24]
  viability, T/C: 80%
[25]
  viability, T/C: 50.7%
[26]
  viability, T/C: 46.9%
[27]
  viability, T/C: 50.7%
[28]
  viability, T/C: 47.2%
[29]
  viability, T/C: 43.1%
[30]
  viability, T/C: 57.9%
[31]
  viability, T/C: 29.5%
[32]
  viability, T/C: 33.7%
[33]
  viability, T/C: 31.5%
[34]
  viability, T/C: 33.7%
[35]
  viability, T/C: 26.9%
[36]
  viability, T/C: 30.8%

## C=CC(=O)N1CCN(c2nc(=O)n(-c3c(C)ccnc3C(C)C)c3nc(-c4c(O)cccc4F)c(F)cc23)C(C)C1 (stereo not drawn) + CC(Nc1ccc2c(c1)OCCn1cc(N3C(=O)OCC3C(F)F)nc1-2)C(N)=O
Second compound 0.00316 µM
  IC50: > 10 µM
Second compound 0.01 µM
  IC50: > 10 µM
Second compound 0.0316 µM
  IC50: > 10 µM
Second compound 0.1 µM
  IC50: > 10 µM
Second compound 0.316 µM
  IC50: > 10 µM
Second compound 1 µM
  IC50: > 10 µM
[1]
  viability, T/C: 103%
[2]
  viability, T/C: 94.4%
[3]
  viability, T/C: 98.8%
[4]
  viability, T/C: 88.2%
[5]
  viability, T/C: 99.7%
[6]
  viability, T/C: 105%
[7]
  viability, T/C: 105%
[8]
  viability, T/C: 99.2%
[9]
  viability, T/C: 96.9%
[10]
  viability, T/C: 94%
[11]
  viability, T/C: 99.6%
[12]
  viability, T/C: 106%
[13]
  viability, T/C: 97%
[14]
  viability, T/C: 98.5%
[15]
  viability, T/C: 102%
[16]
  viability, T/C: 96%
[17]
  viability, T/C: 113%
[18]
  viability, T/C: 99.6%
[19]
  viability, T/C: 91.7%
[20]
  viability, T/C: 97.2%
[21]
  viability, T/C: 107%
[22]
  viability, T/C: 102%
[23]
  viability, T/C: 107%
[24]
  viability, T/C: 104%
[25]
  viability, T/C: 90.1%
[26]
  viability, T/C: 96.8%
[27]
  viability, T/C: 94.5%
[28]
  viability, T/C: 94%
[29]
  viability, T/C: 108%
[30]
  viability, T/C: 98.4%
[31]
  viability, T/C: 95.1%
[32]
  viability, T/C: 83.7%
[33]
  viability, T/C: 87.4%
[34]
  viability, T/C: 87%
[35]
  viability, T/C: 87.4%
[36]
  viability, T/C: 91.3%

## Cn1nccc1Nc1nccc(-c2ccn(C(CO)c3ccc(Cl)c(F)c3)c(=O)c2)n1 (stereo not drawn) + COc1c(OCCCN2CCOCC2)ccc2c3n(c(=NC(=O)c4cnc(N)nc4)nc12)CCN3
Second compound 0.00316 µM
  IC50: 6.98 µM
Second compound 0.01 µM
  IC50: 1.36 µM
Second compound 0.0316 µM
  IC50: 0.4 µM
Second compound 0.1 µM
  IC50: 0.153 µM
Second compound 0.316 µM
  IC50: < 0.0316 µM
Second compound 1 µM
  IC50: < 0.0316 µM
[1]
  viability, T/C: 111%
[2]
  viability, T/C: 84.7%
[3]
  viability, T/C: 100%
[4]
  viability, T/C: 72.8%
[5]
  viability, T/C: 57.7%
[6]
  viability, T/C: 46.6%
[7]
  viability, T/C: 112%
[8]
  viability, T/C: 100%
[9]
  viability, T/C: 87.5%
[10]
  viability, T/C: 51.4%
[11]
  viability, T/C: 41.8%
[12]
  viability, T/C: 34.4%
[13]
  viability, T/C: 90.2%
[14]
  viability, T/C: 83.8%
[15]
  viability, T/C: 56.2%
[16]
  viability, T/C: 26.4%
[17]
  viability, T/C: 25.1%
[18]
  viability, T/C: 21.8%
[19]
  viability, T/C: 74.5%
[20]
  viability, T/C: 58%
[21]
  viability, T/C: 35.9%
[22]
  viability, T/C: 14.2%
[23]
  viability, T/C: 10.7%
[24]
  viability, T/C: 9.81%
[25]
  viability, T/C: 46.3%
[26]
  viability, T/C: 38.4%
[27]
  viability, T/C: 18.3%
[28]
  viability, T/C: 7.62%
[29]
  viability, T/C: 4.31%
[30]
  viability, T/C: 2.66%
[31]
  viability, T/C: 26%
[32]
  viability, T/C: 20.9%
[33]
  viability, T/C: 13.4%
[34]
  viability, T/C: 6.73%
[35]
  viability, T/C: 3.58%
[36]
  viability, T/C: 2.38%
